pIC50: −log10 of the molar value.
Key:
[1] = molecular target: T1, hFASN enzyme (full length) (Homo sapiens, UniProt P49327); experiment: Fatty Acid Synthase (FASN) Inhibition Scintillation Proximity Assay; assay type: biochemical; conditions: for pIC50: mean where tested more than once, ~ = standard error of pIC50 larger than 0.5; for inhibition at 10 µM: read-out: FASN % Effect @1E−05M
T1 construct: 10 μL hFASN enzyme (full length, 300 ng, purified in house); made in house
Method: In this assay, inhibition of FASN activity is measured using ^3H-acetyl-CoA and malonyl-CoA as substrates. ^3H-Acetyl CoA is converted to ^3H-palmitate through a series of reactions by the FASN protein, which contains 7 functional domains and carries out 7 enzymatic reactions to ultimately produce ^3H-palmitate. The assay principle is based upon the fact that ^3H-acetyl-CoA is hydrophilic and the end product, ^3H-palmitate is hydrophobic.
10 μL assay buffer (100 mM KH2PO4 pH 7.5, 1 mM DTT) (20 μL in blanks) was added to a 384-well white Opti Plate plate (Perkin Elmer). 0.9 μL test compound (at concentrations of 30 μM, 10 μM, 3 μM, 1 μM, 0.30 μM, 0.10 μM, 0.03 μM and 0.01 μM)/DMSO and 10 μL hFASN enzyme (full length, 300 ng, purified in house) or 10 μL assay buffer was added to the wells. Then 10 μL 450 μM NADPH (Sigma N7505), 18.75 μM [^3H]-acetyl-CoA (Perkin Elmer NET-290L), 150 μM malonyl-CoA (Sigma M4263) were added, mixed and incubated at room temperature for 60 minutes. The reaction was stopped by adding 20 μL Streptavidin coupled imaging beads (25 mg/ml). After incubation for 30 minutes at room temperature in the dark, the 384 well plate was centrifuged at 1500 rpm for 3 minutes and was measured after at least 24 hrs by the LEADseeker™, measuring emission using a 610±20 nm pass filter. (Bays, N. W., et al., “A simplified scintillation proximity assay for fatty acid synthase activity: development and comparison with other FAS activity assays”, J. Biomol. Screen, 2009, pp 636-642, Vol. 14(6).)
(§1) Raw data generated by the instrument were normalized to % Controlmin values, which were calculated as: % Controlmin=100*(x−mLC)/(mHC−mLC)
(§2) where mLC and mHC were the means of the low control wells and high control wells on the plate, after manual exclusion of outliers. A plot of Controlmin versus test compound concentration was fitted to a 4-parameter logistic curve using a non-linear least squares regression method. From the plot, an IC50 (concentration at which 50% inhibition is achieved) was calculated. pIC50 values were calculated as −log(IC50), when IC50 is expressed in molar units.

[2] = molecular target: T2, FASN Keto-reductase Domain (Homo sapiens, UniProt P49327); experiment: Fatty Acid Synthase Keto-Reductase Domain (FASN KR) Inhibition; assay type: biochemical; conditions: mean where tested more than once; read-out: FASN K-R Domain pIC50 (converted)
T2 construct: 10 μL hFASN enzyme (full length, 300 ng, purified in house) and 360 μM NADPH; made in house
T2 sequence (P49327 whole entry, the tested form may be a part): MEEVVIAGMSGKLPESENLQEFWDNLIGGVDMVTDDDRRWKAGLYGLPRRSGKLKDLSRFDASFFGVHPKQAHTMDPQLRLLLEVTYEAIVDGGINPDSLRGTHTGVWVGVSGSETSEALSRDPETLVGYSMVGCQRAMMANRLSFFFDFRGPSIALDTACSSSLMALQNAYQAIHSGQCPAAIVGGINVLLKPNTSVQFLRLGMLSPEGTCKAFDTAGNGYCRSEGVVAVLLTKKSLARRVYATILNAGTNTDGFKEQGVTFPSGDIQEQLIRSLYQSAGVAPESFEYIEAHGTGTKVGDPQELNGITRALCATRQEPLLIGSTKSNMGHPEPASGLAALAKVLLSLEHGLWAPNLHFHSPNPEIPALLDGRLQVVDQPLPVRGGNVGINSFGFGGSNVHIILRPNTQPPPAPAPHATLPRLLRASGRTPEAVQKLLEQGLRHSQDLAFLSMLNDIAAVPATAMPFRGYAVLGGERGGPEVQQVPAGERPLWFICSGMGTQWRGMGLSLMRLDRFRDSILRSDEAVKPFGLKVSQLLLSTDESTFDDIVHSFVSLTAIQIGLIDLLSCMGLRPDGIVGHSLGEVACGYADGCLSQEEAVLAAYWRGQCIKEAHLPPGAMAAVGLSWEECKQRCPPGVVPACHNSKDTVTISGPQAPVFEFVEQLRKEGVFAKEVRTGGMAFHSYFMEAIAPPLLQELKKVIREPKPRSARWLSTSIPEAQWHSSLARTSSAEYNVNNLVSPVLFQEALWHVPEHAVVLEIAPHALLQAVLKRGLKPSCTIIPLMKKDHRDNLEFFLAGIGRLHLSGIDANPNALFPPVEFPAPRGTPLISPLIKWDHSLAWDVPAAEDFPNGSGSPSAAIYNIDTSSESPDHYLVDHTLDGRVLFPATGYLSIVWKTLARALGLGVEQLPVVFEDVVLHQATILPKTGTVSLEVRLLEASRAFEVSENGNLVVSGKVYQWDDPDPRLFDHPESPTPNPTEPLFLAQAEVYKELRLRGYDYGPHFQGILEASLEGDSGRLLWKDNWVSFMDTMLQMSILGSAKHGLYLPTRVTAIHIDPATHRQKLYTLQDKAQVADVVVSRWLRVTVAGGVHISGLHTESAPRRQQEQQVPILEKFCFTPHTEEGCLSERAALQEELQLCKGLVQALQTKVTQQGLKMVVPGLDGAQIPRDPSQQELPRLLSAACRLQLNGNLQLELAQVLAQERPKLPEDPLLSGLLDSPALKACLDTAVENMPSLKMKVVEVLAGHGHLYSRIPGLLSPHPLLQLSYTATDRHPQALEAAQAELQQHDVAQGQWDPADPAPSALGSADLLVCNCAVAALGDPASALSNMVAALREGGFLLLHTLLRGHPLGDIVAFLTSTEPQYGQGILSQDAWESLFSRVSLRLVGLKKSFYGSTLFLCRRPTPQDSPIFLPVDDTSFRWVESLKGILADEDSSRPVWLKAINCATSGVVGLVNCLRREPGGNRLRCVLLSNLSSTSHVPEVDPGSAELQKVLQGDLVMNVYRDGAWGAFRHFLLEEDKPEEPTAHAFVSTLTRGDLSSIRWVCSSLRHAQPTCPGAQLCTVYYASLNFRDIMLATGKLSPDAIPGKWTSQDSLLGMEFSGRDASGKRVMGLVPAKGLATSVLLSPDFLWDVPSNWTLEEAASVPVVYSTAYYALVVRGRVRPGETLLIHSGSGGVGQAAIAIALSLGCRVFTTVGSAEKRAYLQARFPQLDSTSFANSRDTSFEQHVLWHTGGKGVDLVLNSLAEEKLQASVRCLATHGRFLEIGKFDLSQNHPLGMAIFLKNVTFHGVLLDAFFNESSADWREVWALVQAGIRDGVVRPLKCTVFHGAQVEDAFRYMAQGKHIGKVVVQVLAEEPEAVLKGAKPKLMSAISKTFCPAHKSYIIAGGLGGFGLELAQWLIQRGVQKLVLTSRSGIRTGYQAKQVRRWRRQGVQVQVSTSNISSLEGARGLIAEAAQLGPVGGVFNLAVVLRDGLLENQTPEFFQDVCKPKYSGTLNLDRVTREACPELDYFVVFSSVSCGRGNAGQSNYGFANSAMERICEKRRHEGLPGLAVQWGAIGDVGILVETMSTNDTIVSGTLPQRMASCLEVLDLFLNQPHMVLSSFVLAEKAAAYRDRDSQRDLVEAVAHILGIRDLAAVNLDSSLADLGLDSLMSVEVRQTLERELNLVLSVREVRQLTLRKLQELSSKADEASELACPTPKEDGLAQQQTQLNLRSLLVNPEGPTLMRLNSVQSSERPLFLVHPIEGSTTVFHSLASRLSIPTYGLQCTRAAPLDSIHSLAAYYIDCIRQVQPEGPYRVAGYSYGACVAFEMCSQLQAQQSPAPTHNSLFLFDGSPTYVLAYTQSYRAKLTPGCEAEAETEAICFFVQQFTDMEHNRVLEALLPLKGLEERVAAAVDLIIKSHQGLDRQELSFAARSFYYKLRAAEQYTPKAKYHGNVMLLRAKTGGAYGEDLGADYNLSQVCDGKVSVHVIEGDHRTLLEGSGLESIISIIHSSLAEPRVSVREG
Method: 10 μL assay buffer (100 mM KH2PO4 pH 7.5) was added to a 384-well clear plate (costar 3702). 0.3 μL compound (at concentrations of 30 μM, 10 μM, 3 μM, 1 μM, 0.30 μM, 0.10 μM, 0.03 μM and 0.01 μM)/DMSO, 10 μL hFASN enzyme (full length, 300 ng, purified in house) and 360 μM NADPH (except in blank) were then added. Then, 10 μL 180 mM ethyl acetoacetate (Aldrich 688983) was added, mixed and immediately thereafter, the absorbance at 340 nm (T1) by Multiscan (Labsystems) was measured. After 20 minutes incubation at room temperature the plate was measured again (T2).
The decrease in absorbance was calculated as (Absorbance before incubation T1)−(Absorbance following incubation T2).
as §1, §2

[3] = test system: A2780 ovarian cells; experiment: A2780 Ovarian Cell Proliferation Assay in Lipid Reduced Medium, without Palmitate; assay type: cell-based; conditions: Homo sapiens, A2780; lipid reduced medium, without palmitate, 96 h, MTT; read-out: Proliferation A2780 w/o Palmitate pIC50 (converted)
Method: (§3) The biological assays described below correspond to comparative assays for ovarian cell proliferation. […] Compounds active in the absence of palmitate would not be expected to be active in the control.
(§4) 2500 cells were seeded in a 96-well clear well plate in 200 μL RPMI1640 with 10% Fetal Calf Serum (Hyclone), and incubated at 37° C., 5% CO2. Blanks were wells without cells. The next day the culture medium was aspirated and replaced by 160 μL culture medium with 10% Lipid-Reduced Serum (LRS, Hyclone). 20 μL test compound (at concentrations of 30 μM, 10 μM, 3 μM, 1 μM, 0.30 μM, 0.10 μM, 0.03 μM and 0.01 μM)/DMSO dilution followed by 20 μL ethanol-BSA solution were added to a final concentrations of 0.2% DMSO, 0.2% fatty-acid-free BSA, 0.25% ethanol. After 96 h incubation an MTT assay was performed. The absorbance was measured at 544 nm on a SPECTRAMAX.
as §1, §2
(§5) Representative compounds of the present invention were tested according to the procedure as described in Biological Example 3 above, with results as listed in Table BIO-3, below.

[4] = test system: A2780 ovarian cells; experiment: A2780 Ovarian Cell Proliferation Assay in Lipid Reduced Medium, with Palmitate (control); assay type: cell-based; conditions: Homo sapiens, A2780; lipid reduced medium, 25 μM palmitate, 96 h, MTT; read-out: Proliferation A2780 with Palmitate pIC50 (converted)
Method: as §3
as §4, with “palmitate-BSA” for “ethanol-BSA”, “DMSO, 25 μM palmitate (Sigma, P0500, 10 mM stock solution in ethanol)” for “DMSO,”, “incubation,” for “incubation”
A best fit curve was fitted by a minimum sum of squares method, plotting Controlmin versus test compound concentration. From the plot, an IC50 (concentration at which 50% inhibition is achieved) was calculated. pIC50 values, presented in the Table below, were calculated as −log(IC50).
as §5

T1 sequence (P49327 whole entry): as the sequence (P49327 whole entry, the tested form may be a part) above

| Structure (SMILES) | pIC50 [1] | inhibition at 10 µM [1] [%] | IC50 [2] [nM] | IC50 [3] [nM] | IC50 [4] [nM] |
| --- | --- | --- | --- | --- | --- |
| CC(C)Nc1ccc(C(=O)Nc2cc(C(=O)N3CC[C@H](c4ccc(-c5ccnn5C)cc4)[C@@H](O)C3)ccc2Cl)cn1 (racemic) [Compound #77, (±)-N-(2-chloro-5-((3R,4R)-3-hydroxy-4-(4-(1-methyl-1H-pyrazol-5-yl)phenyl)piperidine-1-carbonyl)phenyl)-6-(isopropylamino)nicotinamide] | 6.75 | 105 | 1070 | 851 | 15100 |
| CCC(=O)NC1CC[C@@H](C(=O)Nc2cc(C(=O)N3CC(c4ccc(-c5ccnn5C)cc4)C3)ccc2C)C1 (stereo in doubt) [Compound 64, (1R,3S)—N-(2-methyl-5-(3-(4-(1-methyl-1H-pyrazol-5-yl)phenyl)azetidine-1-carbonyl)phenyl)-3-propionamidocyclopentanecarboxamide] | 7.46 | 102 | 85.1 | ~302 | > 10000 |
| Cc1ccc(C(=O)N2CC(c3ccc(-c4ccncc4)cc3)C2)cc1NC(=O)c1ccc(Cl)nc1 [Compound 3, 6-chloro-N-(2-methyl-5-(3-(4-(pyridin-4-yl)phenyl)azetidine-1-carbonyl)phenyl)nicotinamide] | 7.59 | 106 | 64.6 | 138 | 5250 |
| Cc1ccc(C(=O)N2CC(c3ccc(-c4cnn(C)c4)cc3)C2)cc1NC(=O)c1ccc(Cl)nc1 [Compound 4, 6-chloro-N-(2-methyl-5-(3-(4-(1-methyl-1H-pyrazol-4-yl)phenyl)azetidine-1-carbonyl)phenyl)nicotinamide] | 7.40 | 109 | 97.7 | 174 | > 10000 |
| Cc1ccc(C(=O)N2CCC(c3ccc(-c4cnn(C)c4)cc3)CC2)cc1NC(=O)c1ccccc1 [Compound 115, N-(2-methyl-5-(4-(4-(1-methyl-1H-pyrazol-4-yl)phenyl)piperidine-1-carbonyl)phenyl)benzamide] | – | 99 | – | 162 | > 10000 |
| COc1ncccc1C(=O)Nc1cc(C(=O)N2CCC(c3ccc(-c4cnn(C)c4)cc3)CC2)ccc1C [Compound 118, 2-methoxy-N-(2-methyl-5-(4-(4-(1-methyl-1H-pyrazol-4-yl)phenyl)piperidine-1-carbonyl)phenyl)nicotinamide] | – | – | 288 | 389 | 2750 |
| COc1ccc(C(=O)N2CC(c3ccc(-c4cnn(C)c4)cc3)C2)cc1NC(=O)c1ccc(Cl)nc1 [Compound 183, 6-chloro-N-(2-methoxy-5-(3-(4-(1-methyl-1H-pyrazol-4-yl)phenyl)azetidine-1-carbonyl)phenyl)nicotinamide] | – | 98 | – | 407 | > 10000 |

Other lines, results leading:

| pIC50 [1] | inhibition at 10 µM [1] [%] | IC50 [2] [nM] | IC50 [3] [nM] | IC50 [4] [nM] | Structure (SMILES) |
| --- | --- | --- | --- | --- | --- |
| 6.60 | 101 | 562 | 603 | 8510 | Cc1ccc(C(=O)N2CC[C@H](c3ccc(-n4ccnc4)cc3)[C@H](C)C2)cc1NC(=O)c1ccc(Cl)nc1 (racemic) [Compound 53, (±)-N-(5-((3S,4S)-4-(4-(1H-imidazol-1-yl)phenyl)-3-methylpiperidine-1-carbonyl)-2-methylphenyl)-6-chloronicotinamide] |
| 6.63 | 104 | 288 | 204 | > 10000 | Cc1ccc(C(=O)N2CC[C@H](c3ccc(-n4ccnc4)cc3)[C@@H](C)C2)cc1NC(=O)c1ccc(Cl)nc1 (racemic) [Compound 54, (±)-N-(5-(4-((3R,4S)-4-(1H-imidazol-1-yl)phenyl)-3-methylpiperidine-1-carbonyl)-2-methylphenyl)-6-chloronicotinamide] |
| 6.20 | 91 | 1380 | 1050 | 2000 | Cc1ccc(C(=O)N2CC[C@H](c3ccc(-c4ccnn4C)cc3)[C@H](C)C2)cc1NC(=O)c1ccc(NC(C)C)nc1 (racemic) [Compound #76, (±)-6-(Isopropylamino)-N-(2-methyl-5-((3S,4S)-3-methyl-4-(4-(1-methyl-1H-pyrazol-5-yl)phenyl)piperidine-1-carbonyl)phenyl)nicotinamide] |
| ~7.49 | 120 | 100 | 110 | 4270 | Cc1ccc(C(=O)N2CC[C@H](c3ccc(-c4ccnn4C)cc3)[C@@H](C)C2)cc1NC(=O)c1ccc(NC(C)C)nc1 (racemic) [Compound #81, (±)-6-(isopropylamino)-N-(2-methyl-5-((3R,4S)-3-methyl-4-(4-(1-methyl-1H-pyrazol-5-yl)phenyl)piperidine-1-carbonyl)phenyl)nicotinamide] |
| 7.72 | 115 | 132 | 174 | 6310 | Cc1ccc(C(=O)N2CC[C@H](c3ccc(-c4ccnn4C)cc3)[C@@H](C)C2)cc1NC(=O)c1ccc(Cl)nc1 (racemic) [Compound #110, (±)-6-Chloro-N-(2-methyl-5-((3R,4S)-3-methyl-4-(4-(1-methyl-1H-pyrazol-5-yl)phenyl)piperidine-1-carbonyl)phenyl)nicotinamide] |
| 6.29 | 96 | 1780 | 1620 | 4470 | Cc1ccc(C(=O)N2CC[C@H](c3ccc(-c4ccnn4C)cc3)[C@H](C)C2)cc1NC(=O)c1ccc(Cl)nc1 (racemic) [Compound #111, (±)-6-chloro-N-(2-methyl-5-((3S,4S)-3-methyl-4-(4-(1-methyl-1H-pyrazol-5-yl)phenyl)piperidine-1-carbonyl)phenyl)nicotinamide] |

Reference: patent US9562035B2, “Benzamide derivative useful as FASN inhibitors for the treatment of cancer” (Janssen Pharmaceutica NV, priority 2013, dated 2017)
